Assay results from ChEMBL document CHEMBL2331100, “Inhibition pattern of sulfamide-related compounds in binding to carbonic anhydrase isoforms I, II, VII, XII and XIV” (Bioorg Med Chem, 2013).

Experiments:
[1] = target: Carbonic anhydrase 12 (Homo sapiens, UniProt O43570); experiment: Inhibition of human carbonic anhydrase 12 preincubated for 15 mins by CO2 hydration stopped-flow assay
[2] = target: Carbonic anhydrase 1 (Homo sapiens, UniProt P00915); experiment: Inhibition of human carbonic anhydrase 1 preincubated for 15 mins by CO2 hydration stopped-flow assay
[3] = target: Carbonic anhydrase 2 (Homo sapiens, UniProt P00918); experiment: Inhibition of human carbonic anhydrase 2 preincubated for 15 mins by CO2 hydration stopped-flow assay
[4] = target: Carbonic anhydrase 7 (Homo sapiens, UniProt P43166); experiment: Inhibition of human carbonic anhydrase 7 preincubated for 15 mins by CO2 hydration stopped-flow assay
[5] = target: Carbonic anhydrase 14 (Homo sapiens, UniProt Q9ULX7); experiment: Inhibition of human carbonic anhydrase 14 preincubated for 15 mins by CO2 hydration stopped-flow assay
Carbonic anhydrase 14, sequence (Q9ULX7 whole entry): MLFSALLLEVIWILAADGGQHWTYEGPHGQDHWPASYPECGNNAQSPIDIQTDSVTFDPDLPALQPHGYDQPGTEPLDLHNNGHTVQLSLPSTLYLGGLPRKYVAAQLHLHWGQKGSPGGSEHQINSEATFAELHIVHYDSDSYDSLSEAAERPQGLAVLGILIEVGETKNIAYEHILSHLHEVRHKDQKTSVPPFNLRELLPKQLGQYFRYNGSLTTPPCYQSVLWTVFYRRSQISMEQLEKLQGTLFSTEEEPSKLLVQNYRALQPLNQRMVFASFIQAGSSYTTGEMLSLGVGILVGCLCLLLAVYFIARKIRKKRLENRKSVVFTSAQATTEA

Carbonic anhydrase 7, sequence (P43166 whole entry): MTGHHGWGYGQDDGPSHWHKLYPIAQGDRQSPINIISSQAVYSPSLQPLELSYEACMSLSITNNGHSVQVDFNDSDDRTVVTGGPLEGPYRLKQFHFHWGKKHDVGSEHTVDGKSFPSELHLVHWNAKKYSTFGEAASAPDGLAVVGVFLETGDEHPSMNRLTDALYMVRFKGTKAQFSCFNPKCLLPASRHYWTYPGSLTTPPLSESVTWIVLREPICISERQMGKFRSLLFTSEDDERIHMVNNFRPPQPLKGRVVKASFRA
Carbonic anhydrase 1, sequence (P00915 whole entry): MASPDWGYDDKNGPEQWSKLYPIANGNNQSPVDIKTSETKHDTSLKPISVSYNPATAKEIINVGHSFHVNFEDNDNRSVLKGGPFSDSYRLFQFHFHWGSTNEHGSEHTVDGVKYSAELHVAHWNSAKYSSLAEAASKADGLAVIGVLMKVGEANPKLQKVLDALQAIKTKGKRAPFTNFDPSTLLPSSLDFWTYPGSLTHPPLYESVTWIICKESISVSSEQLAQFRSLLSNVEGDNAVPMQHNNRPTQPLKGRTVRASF
Carbonic anhydrase 12, sequence (O43570 whole entry): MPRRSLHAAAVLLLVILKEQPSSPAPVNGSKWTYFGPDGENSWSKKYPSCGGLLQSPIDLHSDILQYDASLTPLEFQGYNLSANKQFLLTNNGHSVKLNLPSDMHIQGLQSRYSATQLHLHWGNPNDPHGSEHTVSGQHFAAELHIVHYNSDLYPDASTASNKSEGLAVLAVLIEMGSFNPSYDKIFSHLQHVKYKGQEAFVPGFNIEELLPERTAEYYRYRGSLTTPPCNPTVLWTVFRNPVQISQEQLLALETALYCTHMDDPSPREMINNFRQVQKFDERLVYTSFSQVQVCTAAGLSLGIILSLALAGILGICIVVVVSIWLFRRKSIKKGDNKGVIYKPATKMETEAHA

Ki [1] [µM]	Ki [2] [µM]	Ki [3] [µM]	Ki [4] [µM]	Ki [5] [µM]	Compound
> 200	> 200	> 200	> 200	> 200	O=S(=O)(NCCc1ccccc1)NCCc1ccccc1
0.94	0.13	0.12	0.3	0.84	NS(=O)(=O)NCc1ccccc1
61.2	> 200	> 200	> 200	8.37	CCCCNS(=O)(=O)NCCC(=O)OC
0.77	> 200	> 200	0.16	8.79	O=S(=O)(NC1CC1)NC1CC1
> 200	4.69	124	> 200	> 200	CCCNS(=O)(=O)NCCC
> 200	> 200	> 200	> 200	> 200	CCCCN(CCCC)S(=O)(=O)N(CCCC)CCCC
0.89	8.84	161	0.17	40.4	CC(C)(C)OC(=O)NS(=O)(=O)NCc1ccccc1
3.53	24.9	60.3	> 200	7.1	CCCN(CCC)S(N)(=O)=O
0.89	2.98	1.92	4.3	–	CCCC(CCC)COS(N)(=O)=O
54.5	> 200	> 200	> 200	5.38	COC(=O)[C@H](C)NS(=O)(=O)NC(=O)OC(C)(C)C
0.91	6.88	> 200	0.32	–	CCCN(CCC)S(=O)(=O)NC(=O)OC(C)(C)C
0.7	6.64	100	0.32	9.94	O=S(=O)(NC1CCCCC1)NC1CCCCC1
9.1	> 200	135	0.47	48.8	O=S(=O)(N1CCOCC1)N1CCOCC1
> 200	9.35	> 200	> 200	–	CCCN(CCC)S(=O)(=O)N(CCC)CCC
56.3	> 200	55.7	> 200	5.92	COC(=O)CNS(=O)(=O)NC(=O)OC(C)(C)C
70.8	> 200	> 200	> 200	–	COC(=O)CCNS(=O)(=O)NCCC(=O)OC
65	88.7	> 200	68.7	8.53	COC(=O)CCNS(=O)(=O)Oc1ccccc1O
73	> 200	> 200	> 200	–	COC(=O)[C@@H](NS(=O)(=O)N[C@H](C(=O)OC)C(C)C)C(C)C
> 200	> 200	> 200	> 200	7.66	COC(=O)[C@H](C)NS(=O)(=O)N[C@@H](C)C(=O)OC
65.4	62.2	41.1	> 200	8.09	CCCC(CCC)CN(C(=O)OC(C)(C)C)S(=O)(=O)NCCC(=O)OC
81.5	> 200	0.65	0.38	–	O=S(=O)(NCc1ccccc1)NCc1ccccc1 [BENZYL(BENZYLSULFAMOYL)AMINE]
0.69	6.64	66.3	0.41	9.79	CCCCNS(=O)(=O)NCCCC [BUTYL(BUTYLSULFAMOYL)AMINE]
0.73	3.66	2.82	0.7	0.82	CCCCCCOS(N)(=O)=O [HEXYL SULFAMATE]
